Read-outs that look alike come from different tables or passages of the source.
Assays:
Format in all cases: in vivo
[1] = tested on: rice blast Pyricularia oryzae; conditions: soil and leaves, 7 days, controls less than 5%
[2] = tested on: vine downy mildew Plasmopara viticola; test: Vine downy mildew control on vine plants (leaf application); conditions: leaves, 12 days, controls less than 5%
Method: Aqueous acetone solutions or suspensions containing 2000 or 500 mg of the compound listed below per liter, together with 125 mg of a wetting agent per liter, were applied to:
(B) the leaves of vine plants having five fully expanded leaves;
The treated plants, together with controls treated with wetting agent alone, were inoculated 24 hours after the chemical application:
in the case of (B) with an aqueous suspension of sporangia of the disease organism vine downy mildew Plasmopara viticola;
in the case of (B) were placed in an atomosphere of 80-100% humidity at 14°-18° C. until the disease incidence was measured twelve days later;

[3] = tested on: potato blight Phytophthora infestans; conditions: 500 ppm; 5 days; controls less than 5%

CCS(=O)(=O)N(CC(=O)C(C)(C)C)c1c(C)cccc1C [Example 212, N-2-oxo-3,3-dimethylbutyl-2',6'-dimethyl-ethanesulphonanilide]
% Control, rice blast ([1]; 2000 ppm): 80%

COC(=O)C(C)N(c1c(C)cccc1C)S(C)(=O)=O (stereo not drawn) [Example 29, N-(1-(methoxycarbonyl)ethyl)-2',6'-dimethyl-methanesulphonanilide]
% Control, vine downy mildew ([2]; 500 ppm): 90% | % Control, vine downy mildew ([2]; 2000 ppm): 98%

CON=C(C)CN(c1c(C)cccc1C)S(C)(=O)=O [Example 249]
% Control, potato blight [3]: 74% | % Control, rice blast ([1]; 500 ppm): 66%

CS(=O)(=O)N(CC#N)c1ccc(SC#N)cc1 [Example 141]
% Control, rice blast ([1]; 2000 ppm): 84%
